In US8900551B2, “Peptide which passes through blood-brain barrier and targets apoptosis of neurodegenerative brain disease site and uses thereof” (Kyungpook National University Industry-Academic Cooperation …, priority 2009, dated 2014):
Where no end group is shown, it is not given here.

Columns and labels:
[1] = test system: Parkinson's disease-affected mouse treated with MPTP; test: Monitoring the therapeutic effect of amantadine in MPTP-induced Parkinson's disease mice; type: in vivo
Experimental: (§1) Parkinson's disease was induced by specifically destroying a dopaminergic neuron existing in substantia nigra of a brain by a drug. For this, to each of C57BL male mice (koatech) (body weight: 21 to 23 g), MPTP (1-methyl-4-phenyl-1,2,3,6-tetrahydro pyridine hydrochloride) (Sigma) was administered with a single dose of 15 mg/kg. MPTP administration was carried out with an interval of 2 hours, four times through intraperitoneal injection, and each mouse was administered with MPTP in a total amount of 60 mg/kg.
(§2) On day 7, 14, and 21 from the administration of MPTP (day 0), the inventive peptide labeled with Cy7.5 was injected. The peptide was intravenously injected into a tail vein to a final concentration of 50 μM, under isoflurane anesthesia, and was circulated for 2 hours. Then, an in vivo near infrared fluorescence image was imaged. The mouse on which the experiment had been completed was immediately subjected to anesthesia and euthanasia. Then, a brain tissue sample was collected. From the dead mouse, blood was immediately removed by saline solution flushing through heart, and primarily fixed by re-flushing of 4% paraformaldehyde solution. The primarily fixed brain was collected from the mouse, and then postfixed by being placed for 1 day in 30% sucrose/phosphate buffer solution, and placed for 1 day in 4% paraformaldehyde phosphate buffer solution. The fixed brain tissues were rapidly frozen by dry ice, and formed into a block for frozen fractions. At some desired time, the stored brain block was prepared as frozen fractions, and used for various staining methods.
Also, in order to monitor the therapeutic effect of a drug, after 30 minutes from the administration of MPTP, amantadine used as a Parkinson's disease therapeutic agent was intraperitoneally administered into each mouse in a dose of 25 mg/kg a total of seven times with a one day interval. On day 7 from the administration of amantadine, the inventive peptide labeled with Cy7.5 was injected, and imaging and tissue staining were carried out in the same manner as described above. Apoptosis was analyzed in the same manner as described in Example <1-1>.

[2] = test system: apoptotic cells within Alzheimer's disease-affected brain tissues; test: In vivo near infrared imaging of Alzheimer's disease model mice with Cy7.5-labeled peptide; set-up: species or system mouse; settings: intravenous
Text: (§3) As an Alzheimer's disease model, a transgenic mouse model over-expressing Amyloid precursor protein (APP) gene and Presenilin 1 (PS1) gene was used. The model animal has a characteristic that apoptosis together with extracellular accumulation of beta amyloid protein (one of the characteristics of Alzheimer's disease) gradually increases according to an increase of age. On mice, from a 5 month old mouse (early stage of alzheimer's disease) to a 13 month old mouse (severe stage), this experiment was performed according to the progression of disease. The apoptosis was confirmed by TUNEL (in vitro terminal deoxynucleotidyl transferase-mediated dUTP nick-end labeling) assay according to the manufacturer (Roche)'s instructions. In this method, biotin-dUTP is labeled at the end of a cleaved DNA fragment specifically occurring in apoptosis by using terminal deoxynucleotidyl transferase enzyme, and then fluorescence staining is performed by streptavidin-rhodamine (red fluorescent dye).
The Alzheimer's disease-affected mouse (5, 7, 9, and […]) models were intravenously injected with the inventive peptide (ApoPep-1) labeled with Cy7.5 near infrared fluorescence, under isoflurane anesthesia, to a final concentration of 50 μM. After 2 hours from the injection, a head region was imaged by near infrared imaging, and each brain was isolated and imaged by near infrared imaging. An in vivo near infrared fluorescence image was imaged by an Optix exPlore machine (ART). Also, by using the machine's own software, each image was standardized.
The peptide used in the present invention was synthesized by a standard Fmoc method, and separated by HPLC machine. The synthesis of the peptide was carried out by special companies (Peptron and Anygen). The peptide was synthesized in such a manner that N-terminal was combined with fluorescein isothiacyanate (FITC). Otherwise, after the synthesis of the peptide, N-terminal was combined with Cy7.5 near infrared fluorescent dye.

[3] = test system: apoptotic cells within Parkinson's disease-affected brain tissues; test: In vivo near infrared imaging of MPTP-induced Parkinson's disease mice with Cy7.5-labeled peptide; set-up: species or system mouse; settings: for near infrared fluorescence at the brain region: Cy7.5-labeled, intravenous, 2 hours
Experimental: as §1, §2

[4] = test system: apoptotic cells within Alzheimer's disease-affected brain tissues; test: Immunofluorescence staining analysis of Alzheimer's disease-affected brain tissues injected with FITC-labeled peptide; type: in vivo; settings: frozen brain sections, Alzheimer's disease-affected mouse 13 months old
Experimental: For histological examination, the brain tissues isolated from the mouse (13 months old) injected with the inventive peptide labeled with FITC fluorescence (green), which had been subjected to in vivo imaging in Example <1-1>, were postfixed by 4% paraformaldehyde liquid, and immersed in Sucrose/phosphate buffer for 24 hours. Then, they were prepared as frozen sections with a thickness of 30 μm by cryostat. Immunofluorescence staining on an antibody was carried out by using a secondary antibody labeled with alexa 568 (red fluorescent dye). Each tissue slide was observed by a fluorescence microscope (Zeiss).

[5] = test system: apoptotic cells within Parkinson's disease-affected brain tissues; test: Immunofluorescence / TUNEL staining of Parkinson's disease-affected brain tissues injected with FITC-labeled peptide; type: in vivo, mouse
Text: as §3, with “The apoptosis was confirmed by TUNEL (in vitro terminal deoxynucleotidyl transferase-mediated dUTP nick-end labeling) assay according to the manufacturer (Roche)'s instructions.” left out
[…] Then, an in vivo near infrared fluorescence image was imaged. […]
Also, in order to monitor the therapeutic effect of a drug, after 30 minutes from the administration of MPTP, amantadine used as a Parkinson's disease therapeutic agent was intraperitoneally administered into each mouse in a dose of 25 mg/kg a total of seven times with a one day interval. […] Apoptosis was analyzed in the same manner as described in Example <1-1>.

[6] = amantadine following MPTP vs MPTP alone, brain tissues
[7] = Parkinson's disease-affected mouse (MPTP), 50 μM final

Molecule	near infrared fluorescence of Cy7.5-labeled inventive peptide at brain region ([1]; amantadine 25 mg/kg intraperitoneal, seven times at one day interval following MPTP, vs mouse administered with MPTP)	number of TUNEL-stained apoptotic cells ([1]; amantadine following MPTP vs MPTP alone)	TUNEL staining (apoptosis biomarker) [1, 6]	antibody staining of tyrosine hydroxylase (TH) (dopaminergic neuron-specific marker) [1, 6]	number of TH-stained dopaminergic neurons ([1]; amantadine following MPTP vs MPTP alone, p<0.01)	near infrared fluorescence at brain region ([2]; mouse (8 months old), Cy7.5-labeled, 2 hours after injection)	near infrared fluorescence at the brain region [3, 7]	near infrared fluorescence intensity level at head region according to disease progression ([2]; APP/PS1 Alzheimer's disease-affected mice 5, 7, 9, 13 months old, Cy7.5-labeled, 50 μM final, 2 hours after injection)	near infrared fluorescence at the brain region, Alzheimer's disease-affected mouse versus normal mouse ([2]; Alzheimer's disease-affected mouse (7 and 9 months old) vs normal (wild type) mouse (8 months old), 2 hours)	co-staining of peptide (green) with antibody to Caspase-3 (apoptosis biomarker) [4]	distribution of peptide relative to brain blood vessel (α-SMA antibody staining); passing through blood-brain barrier [4]	near infrared fluorescence at a brain region with the lapse of time ([3]; after 1 week, 2 weeks and 3 weeks from administration of MPTP)	near infrared fluorescence at the brain region ([3]; normal (wild type) mouse)	co-location of peptide (green) with TUNEL staining (apoptosis biomarker) ([5]; brain tissues of MPTP mice and mice administered with amantadine following MPTP (FIG. 7c))	co-location of peptide (green) with TUNEL staining (apoptosis biomarker) ([5]; brain tissues of Parkinson's disease-affected mouse treated with MPTP, FITC-labeled peptide)
NC12CC3CC(CC(C3)C1)C2 [amantadine]	lower near infrared fluorescence than the mouse administered with MPTP	reduction of apoptosis in neurons	decrease of TUNEL staining	increase of antibody staining of tyrosine hydroxylase	statistically significantly increased										
control peptide: control peptide (amino acid sequence, NSSSVDK) [reference compound]						hardly observed	hardly observed								
inventive peptide: peptide targeting apoptotic cells, amino acid sequence CQRPPR (SEQ ID NO: 1), named ApoPep-1; N-terminal labeled with FITC or Cy7.5 (also: N-terminal FITC or Cy7.5 label)							strong near infrared fluorescence was observed	near infrared fluorescence intensity level increased	much stronger near infrared fluorescence at the brain region than the normal mouse	concurrently stained at the same cell	distributed within brain parenchyma outside of a brain blood vessel	became stronger	hardly observed	located at the same cell	concurrently located at the same cell
